The text below walks through data of ChEMBL document CHEMBL1148305, “5-substituted derivatives of 6-halogeno-3-((2-(S)-azetidinyl)methoxy)pyridine and 6-halogeno-3-((2-(S)-pyrrolidinyl)methoxy)pyridine with low picomolar affinity for alpha4beta2 nicotinic acetylcholine receptor and wide range of lipophilicity: potential probes for imaging with positron emission …” (J Med Chem, 2004).

Molecules are shown by their SMILES.

The target of this assay is Neuronal acetylcholine receptor; alpha4/beta2 (Rattus norvegicus, UniProt P09483+P12390). Kind of assay: Ability of compound to compete with 50 pM of 5-[125I]iodo-A-85,380 for receptor binding sites in rat brain membranes at room temperature. Type of assay: cell membranes.
Broadly, the Ki is the equilibrium dissociation constant of an inhibitor or competing ligand from its target. Read a high Ki as lower affinity. Molecule `Fc1ccnc[n+]1-c1cc(OC[C@@H]2CCN2)cnc1Cl` had a Ki of 8.8 pM.

Take `Fc1cc(/C=C/c2cc(OC[C@@H]3CCCN3)cnc2Cl)ccn1`: the Ki was found to be 9.4 pM.

In turn, `Clc1ncc(OC[C@@H]2CCN2)cc1-c1cccnc1` gave a Ki of 8.1 pM.

On to `Clc1ncc(OC[C@@H]2CCN2)cc1/C=C/c1ccnc(Br)c1`, for which the Ki came out at 5.2 pM.

As to `Clc1ccc(-c2cc(OC[C@@H]3CCN3)cnc2Cl)cn1`, affinity was put at a Ki of 4.5 pM.

On to `Clc1ccc(OC[C@@H]2CCN2)cn1`, for which the affinity, expressed as Ki, was 34 pM.

In the case of `Fc1cc(/C=C/c2cc(OC[C@@H]3CCN3)cnc2Cl)ccn1`, the Ki came out at 3.1 pM.

`Clc1ncc(OC[C@@H]2CCN2)cc1-c1ccnc(Br)c1` showed a Ki of 3.3 pM.

In turn, `Clc1ncc(OC[C@@H]2CCCN2)cc1/C=C/c1ccnc(Br)c1` came in with a Ki of 5.6 pM.

The molecule `Fc1cc(-c2cc(OC[C@@H]3CCN3)cnc2Cl)ccn1` showed a Ki of 4.8 pM.

Turning to `Brc1ncc(OC[C@@H]2CCN2)cc1-c1cccnc1`, the Ki was found to be 6.6 pM.

As for `Fc1ncc(OC[C@@H]2CCN2)cc1-c1cccnc1`, the inhibitory constant (Ki) was 66 pM.

Consider `Clc1ncc(OC[C@@H]2CCN2)cc1/C=C/c1ccncc1`, for which the Ki is 9 pM.

Regarding `Fc1ccc(-c2cc(OC[C@@H]3CCN3)cnc2Cl)cn1`, affinity was put at a Ki of 4.9 pM.

`Ic1ncc(OC[C@@H]2CCN2)cc1-c1cccnc1` came in with a Ki of 11.7 pM.

`Fc1ncc(/C=C/c2cc(OC[C@@H]3CCN3)cnc2Cl)cc1Br` came in with a Ki of 7.7 pM.

`Fc1ccc(-c2cc(OC[C@@H]3CCCN3)cnc2Cl)cn1`: the Ki was determined as 17.9 pM.

As for `Clc1ncc(OC[C@@H]2CCCN2)cc1-c1ccc(Br)nc1`, the Ki came to 19.5 pM.

With `Fc1ncc(-c2cc(OC[C@@H]3CCN3)cnc2Cl)cc1Br`, the affinity, expressed as Ki, was 4 pM.

In turn, `Clc1ncc(OC[C@@H]2CCN2)cc1-c1ccc(Br)nc1` registered a Ki of 4.3 pM.
